The sequences below were run on peptide specific CD8+ T cells. Details: mouse, in vivo.
Design: species or system mouse (C57BL/6)
For FSAGAYPLL, the “magnitude of tetramer positive CD8+ T cells” value was “higher”.
In the case of IGLVRDFGL, the “magnitude of tetramer positive CD8+ T cells” value is reported as “higher”.

Each sequence was assayed against H-2K^b monomers (Mus musculus, UniProt P01901). Details: not given.
Chain of H-2K^b monomers (P01901 whole entry, looked up): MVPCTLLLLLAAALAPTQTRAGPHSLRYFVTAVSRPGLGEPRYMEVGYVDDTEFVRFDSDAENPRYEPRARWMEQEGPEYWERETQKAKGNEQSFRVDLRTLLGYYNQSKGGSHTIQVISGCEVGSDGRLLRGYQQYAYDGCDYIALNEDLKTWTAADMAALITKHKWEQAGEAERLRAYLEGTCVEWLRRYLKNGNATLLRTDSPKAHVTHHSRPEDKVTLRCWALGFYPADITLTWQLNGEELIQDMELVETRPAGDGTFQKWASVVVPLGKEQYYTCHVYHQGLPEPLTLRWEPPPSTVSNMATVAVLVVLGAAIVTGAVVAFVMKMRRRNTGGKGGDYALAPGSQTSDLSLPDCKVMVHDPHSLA
Assay type: binding
FSAGAYPLL was tested, and the “fold change values of H-2K^b monomer stabilization vs control peptide SIINFEKL” value (“fold change values” below) was “higher values as compared to other peptides”.
IEHIFESPL was tested, and the “fold change values” value was “higher values as compared to other peptides”.
In the case of IGLVRDFGL, the “fold change values” value is reported as “higher values as compared to other peptides”.
With IVVRRTAGV the “fold change values” value was “higher values as compared to other peptides”.
With SSITTRSRL the “fold change values” value was “higher values as compared to other peptides”.
In the case of VAFNILVTL, the “fold change values” value is reported as “higher values as compared to other peptides”.
VILDRERLV was tested, and the “fold change values” value was “higher values as compared to other peptides”.

These sequences were tested on PPRV-peptide specific CD8+ T cells. Details: mouse, in vivo.
Design: species or system mouse (WT C57BL/6)
For FMYLFLLGV, the “tetramer positive CD8+ T cells, frequencies and numbers vs control” value (from here on “tetramer positive CD8+ T cells … vs control”) was “not significantly different from the control animals”.
In the case of FSAGAYPLL, the “tetramer positive CD8+ T cells … vs control” value is reported as “significantly higher frequencies and numbers”.
IGLVRDFGL was tested, and the “tetramer positive CD8+ T cells … vs control” value was “significantly higher frequencies and numbers”.

Each sequence was assayed on H-2K^b on RMA/S cells. Details: not given.
Assay type: cell-based, murine
With FMYLFLLGV the “stabilization of surface H-2K^b” value was “greater levels than the other peptides”.
In the case of FSAGAYPLL, the “stabilization of surface H-2K^b” value is reported as “greater levels than the other peptides”.
With IGLVRDFGL the “stabilization of surface H-2K^b” value was “greater levels than the other peptides”.

Reference: publication PMC8072281 (Frontiers in Immunology, 2021)
